Measured values published in article PMC12459314, “Subcutaneous administration of a novel TRPM8 antagonist reverses cold hypersensitivity while attenuating the drop in core body temperature” (British journal of pharmacology, 2024).
Where “and” joins values, the source holds several entries; their conditions need not be identical. Equal values may be shown once. Read-outs that look alike come from different tables or passages of the source.

How the values were obtained:
oxaliplatin-treated mice = assay: Oxaliplatin-induced cold hyperalgesia, cold-plantar test; assay type: in vivo, mouse; settings: for reversal of cold hypersensitivity (withdrawal latency) / increase in latency (AUC) compared to baseline: oxaliplatin group; for influence on oxaliplatin-induced cold hypersensitivity: 30 mg·kg−1 alone
Procedure: Male and female C57 BL/6J mice from Taconic Labs were randomized by sex and cage to oxaliplatin or vehicle groups. Mice were weighed and injected intraperitoneally (i.p.) with either oxaliplatin (3 mg·kg^−1), or vehicle (5% dextrose) once per day every day for five consecutive days, followed by five days off, and then by a second round of once per day for five more days. Therefore, mice received a total of 10 injections for a total of 30 mg·kg^−1. The average weight of the females was 18 g while of the males was 20 g. Consequently, the females received an average of 540 and the males 600 μg in total. Behavioural testing was started after the second round of oxaliplatin/vehicle administration. The cold-plantar test was used to assess changes in cold sensitivity. A 3 ml syringe barrel filled with powdered dry ice was used as the stimulus. The dry ice is placed on the glass (borosilicate glass; thickness, 1/8 in. (3.17 mm); temperature, 75°F (24°C), measured with a calibrated IR temperature probe) beneath the hindpaw and the latency to withdraw was determined ([Yilmaz et al., 2017]). The baseline withdrawal latency was determined from the mean of three stimulus applications (at an inter-stimulus interval of ~5 min), while that at each time interval after the administration of a test agent was again the mean of three stimulus applications bracketing the time point in question (i.e., 5 min before, at the time point, and 5 min after). Mice in the two groups defined by oxaliplatin treatment were subsequently randomized to the order of treatment (with the TRPM8 antagonist VBJ103, or vehicle control). VBJ103 and vehicle solutions were administered subcutaneously (s.c.) at doses of 3, 10 and 30 mg·kg^−1. Mice were tested every other day over 7 days so that each mouse received all four injections (vehicle and three doses of VBJ103). In a second cohort of male (n = 8) and female (n = 8) mice, all mice were treated with oxaliplatin as described above, and then randomized to the order of treatment with vehicle, VBJ103 (30 mg·kg^−1) alone, the TRPA1 antagonist, HC-030031 (200 mg·kg^−1) alone, or the combination of VBJ103 (30 mg·kg^−1) and HC-030031 (200 mg·kg^−1). A third cohort of male (n = 7) and female (n = 8) mice was also treated with oxaliplatin as described above. […] All test agents in both follow-up cohorts were again administered in a volume of 5 ml·kg^−1. Mice in both follow-up cohorts were again tested every other day over a period of 6 days. Finally, a fourth cohort of male (n = 4) and female (n = 4) mice was used to confirm that 200 mg·kg^−1 HC-030031 was sufficient to block TRPA1. For this experiment, mice were randomized to the order of treatment with vehicle or HC-030031 ([…]).

[1] = Brain levels in vivo by UPLC-MS/MS; set-up: species or system rat
Procedure: VBJ103 levels in the brain were determined by PsychoGenics Inc (Paramus, USA). VBJ103 and vehicle solutions were administered subcutaneously at a dose of 100 mg·kg^−1. Male and female Sprague–Dawley rats (200–250 g) supplied by Envigo were used in this study and housed three per cage (26 cm × 47.6 cm × 20.3 cm) upon arrival. Rats with jugular vein catheters (JVC) were housed two per cage with a divider to prevent damage to catheters. Cages contained BedO’-Cob® bedding with Nylabones® for enrichment. Rats were acclimatised for 2 to 7 days prior to commencing studies. All rats were examined, handled and weighed prior to initiation of the study to assure adequate health and suitability. During the course of the study, 12/12 light/dark cycles were maintained with lights on at 6 AM. The room temperature was maintained between 20°C and 23°C with a relative humidity maintained around 50%. Chow (Lab diet 5001, LabDiet, St. Louis, MO, USA) and water were provided ad libitum throughout the acclimatisation period and during the treatment and collection period. Rats were randomly assigned to the experimental groups.
UPLC-MS/MS analysis was performed on a ODS 3 Inertsil C18 column 2.1 × 50 mm, 2 μm (GL Sciences 5020–84652), using a gradient of 40:60 solvent A (H2O + 0.5% formic acid):solvent B (ACN + 1.0% formic acid) → 0:100 for 2 min at a flow rate of 0.5 ml·min^−1. The following parameters were used: injection volume 5 μl, column temperature 40°C, pre-column temperature 40°C and sample temperature 4°C. Eluted peaks were monitored with a Waters Xevo TQ-XS coupled to an Acquity i-Class Plus UPLC setup (range: 334.19 Da to 155.04 and 198.08 Da). RT = 1.15 min. The range of quantitation was 0.25 to 10,000 ng·ml^−1 for brain. The software Masslynx V4.2 SCN1012 was used for instrument control and data acquisition.
Brain collection was performed via live decapitation. Whole brains were collected at 1 h following administration and upon completion of serial collections (24 h). Resultant brains were rinsed in saline and frozen immediately on a cold plate (−77°C) before placement into a pre-weighed specimen container. Brain weights were then determined prior to placement of the samples on dry ice followed by relocation to a −80°C freezer pending bioanalysis.
Pre-weighed whole brain tissue was homogenized (Omni Prep multichannel tissue homogenizer) using a 1:1 MilliQ water (containing 0.2% acetic acid)/acetonitrile mixture which was added to the brain using a 4:1 solution to brain ratio. Subsequently, the homogenate was centrifuged for 10 min at 4°C at a speed of 2688 g. Three 25-μl aliquots out of the top layer of the centrifuged homogenate were crashed into three QuanRecovery wells, each containing 150 μl of acetonitrile/internal standard. The crash was then centrifuged for 20 min at 2688 g while maintaining a temperature of 4°C. Mixing of the resultant supernatant with water (3:2) provided samples for triplicate analysis. Brain standards, quality controls (QCs) and blanks were prepared using a male Sprague–Dawley brain acquired from BioIVT using the same protocol outlined above. All standards, QCs, samples and blanks were then loaded onto the UPLC-MS/MS for analysis.
The concentration of VBJ103/mass was based on brain weights. The volume of the homogenate was based on a 4:1 dilution of the brains. The volumes of homogenate was calculated based on brain weights in Table S13.

concentration at 1 h ([1]; female SD rats (animals 26-28), 100 mg/kg SC, 1 h, 100 mg/kg, read-out: brain levels, individual animals): 39 nM and 51 nM
concentration at 1 h ([1]; female, Sprague-Dawley, rat, brain, sc, 100 mg/kg, female SD rats (animals 26-28), 100 mg/kg SC, 1 h, read-out: brain levels, individual animals): 40 nM
concentration at 1 h ([1]; female, Sprague-Dawley, rat, brain, sc, 100 mg·kg^−1, female rats, 100 mg·kg−1 s.c., 1 h per Table S12, read-out: mean brain concentration): 43 ± 4 nM
concentration at 1 h ([1]; male SD rats (animals 23-25), 100 mg/kg SC, 1 h, 100 mg/kg, read-out: brain levels, individual animals): 47 nM and 56 nM
concentration at 1 h ([1]; male, Sprague-Dawley, rat, brain, sc, 100 mg/kg, male SD rats (animals 23-25), 100 mg/kg SC, 1 h, read-out: brain levels, individual animals): 53 nM
concentration at 1 h ([1]; male, Sprague-Dawley, rat, brain, sc, 100 mg·kg^−1, male rats, 100 mg·kg−1 s.c., 1 h per Table S12, read-out: mean brain concentration): 52 ± 2 nM
Structure (SMILES): O=C(NC1CCC2(CCCC2)CC1)c1ccc(-c2ccccc2)cc1 [VBJ103, N-(Spiro[4.5]decan-8-yl)-[1,1′-biphenyl]-4-carboxamide]
reversal of cold hypersensitivity (withdrawal latency) (oxaliplatin-treated mice; 3 mg·kg−1 s.c., at 2 h): significant reversals in hypersensitivity
reversal of cold hypersensitivity (withdrawal latency) (oxaliplatin-treated mice; 10 mg·kg−1 s.c., at 1 and 2 h): significant reversals in hypersensitivity
increase in latency (AUC) compared to baseline (oxaliplatin-treated mice; 10 mg·kg−1 s.c.): significant
influence on oxaliplatin-induced cold hypersensitivity (oxaliplatin-treated mice; second cohort, vehicle 0.5% Methocel): significantly attenuated oxaliplatin-induced cold hypersensitivity at all time points tested
influence on oxaliplatin-induced cold hypersensitivity (oxaliplatin-treated mice; third cohort, vehicle 1:1 DMSO:water): significantly reversed
reversal of cold hypersensitivity (withdrawal latency) (oxaliplatin-treated mice; 30 mg·kg−1 s.c., at 0.5, 1 and 2 h): significant reversals in hypersensitivity
increase in latency (AUC) compared to baseline (oxaliplatin-treated mice; 30 mg·kg−1 s.c.): significant
influence on withdrawal latency to noxious cold stimuli (oxaliplatin-treated mice; VBJ103 30 mg·kg−1 in combination with GBR12909 20 mg·kg−1, third cohort): no detectable influence of GBR12909 on the withdrawal latency
influence on withdrawal latency to noxious cold stimuli (oxaliplatin-treated mice; VBJ103 30 mg·kg−1 in combination with HC-030031 200 mg·kg−1, second cohort): not detectably different from the influence of VBJ103 alone
baseline responses to noxious cold compared to vehicle (oxaliplatin-treated mice; mice not treated with oxaliplatin, 3 to 30 mg·kg−1 s.c.): not altered
concentration at 1 h ([1]; female SD rats (animals 13-16), 100 mg/kg SC, 24 h, 100 mg/kg, read-out: brain levels, individual animals): 14.6 nM and 11.9 nM and 7.1 nM and 8.1 nM
concentration at 1 h ([1]; male SD rats (animals 9-12), 100 mg/kg SC, 24 h, 100 mg/kg, read-out: brain levels, individual animals): 6.9 nM and 7.9 nM and 3.9 nM and 4.9 nM
